Results: patent US9403843B2, “Cysteine protease inhibitors and uses thereof” (The Trustees of Columbia University in the City of New York, priority 2012, dated 2016)
Where two headings read alike, the source gives them in different places.

What was measured:
[1] = biological target: T1, full-length human Cal1 (Homo sapiens (Human), UniProt P07384); assay: Calpain inhibition FRET assay; assay type: biochemical; details: for IC50: Table 2, approximate IC50, read-out: Cal I IC50
Procedure: Calpain activity was measured using full-length human Cal1 in the presence of a FRET substrate. IC50 values were approximated by co-incubation of varying concentrations of the appropriate inhibitor (10, 100, 500, 1000 nM) in the presence of the FRET substrate (DABCYL)TPLK-SPPSPR-(EDANS) (SEQ ID NO: 5) and activation buffer. […] A peptide inhibitor, Z-LLY-FMK (SEQ ID NO: 6), was used as a positive control.
The Calbiochem InnoZyme activity kit was used for measuring the inhibition effect inhibitors on human erythrocyte calpain 1 activity. […] 20 μM of the FRET substrate, 10 nM of native Cal1, and 20 μM TCEP (reducing agent) were added to the reaction mixture containing assay buffer (Tris [10 mM], NaCl [100 mM], pH 7.4). Cal1 was activated by the addition of 10 μM calcium. Cleavage of the scissile bond amide bond, K-S, releases the fluorophore (EDANS) from the internal quenching molecule (DABCYL), resulting in an increase in fluorescence measured at 320 nm excitation and 480 nm emission wave lengths for 30 min. Each inhibitor was added to the reaction mixture at varying concentrations (10 nM, 100 nM, 1 μM, and 10 μM) to detect inhibition of Cal1 and reduction in fluorescence was measured by 96 well-plate reader. Approximate IC50 values of each compound were generated using linear regression within Graphpad Prism Software.

[2] = test system: Aβ-induced LTP impairment; assay: LTP rescue test; details: assessed at 650 nM
Procedure: Residual levels of potentiation were averaged during the last 5 min of LTP.

[3] = biological target: Full length porcine calpain (Sus scrofa (Pig), UniProt P35750); assay: Calpain inhibition kinetics studies (Suc-LLVY-AMC substrate); assay type: biochemical
Excerpt: (§1) Papain is representative of a family of typically lysosomal or secreted cysteine proteases, including the human cathepsins (B, C, F, H, K, L1-2, O, S, W, Z). […] Several methods have been reported in the literature for detailed kinetic analysis of the irreversible inhibition of cysteine proteases, including Cal1. […] (SEQ ID NO: 8). Using this substrate, kinetic parameters were derived using the method of Davies and co-workers, whereby “progress curves” were initially obtained measuring product formation as a function of time and fitted to y=P∞*(1−e^(−k*x)) (FIG. 7) (Cuerrier, D. et al., J Biol Chem 2007, 282, 9600-11; herein incorporated by reference in its entirety). […] Kinetic parameters (ki, KI, ki/KI) were obtained from double reciprocal plots (FIG. 7).
(§2) Full length porcine calpain (156 nM), or papain (236 pM) was added to a solution of 100 mM NaCl, 50 mM HEPES, pH 7.6, 1 mM TCEP, 30 μM Suc-LLVY-AMC (SEQ ID NO: 8) substrate, and inhibitor (0.5 to 50 μM). Calpain reactions also contained CaCl2 (1 mM and 100 mM for porcine and rat respectively). Both substrate and inhibitors were dissolved in acetonitrile/DMSO (1:1) with the exception of E-64, dissolved in water. Organic solvent remained <2% in all reactions, and most often <1%. Reactions were carried out in microtiter 96-well plates, with 150 μL per well, 30° C., and product formation was monitored over time by fluorescence (Ex/Em 346/444 nm, with 420 nm cutoff filter). Kinetic values of kobs were determined via non-linear regression using one-phase association analysis and linear plots of 1/kobs vs. 1/[I] provided kinetic constants ki and KI.

[4] = biological target: T1, full-length human Cal1; assay: Calpain inhibition FRET assay; assay type: biochemical; details: Table 3, 20 min incubation, FRET substrate
[5] = biological target: papain (Carica papaya (Papaya), UniProt P00784); assay: biochemical; assay type: biochemical
Excerpt: as §1, §2

[6] = test system: Cal1cat vs CathB; assay: Competition assay for Cal1 vs CathB using the biotinylated epoxide probe; assay type: binding, rat; details: individually and in combination
Procedure: Anti-biotin western blotting of Cal1cat (Lane 6) or CathB (Lane 7) after incubation with 27 show the expected immunoreactivity of the covalently modified proteins. […] Densitometric analysis, using means from triplicate immunoblots, was used to estimate the modification of each protein by 27 in the presence of inhibitors relative to control (Lane 1: ratio=1.0).
Cal1cat was used in place of the full length enzyme to avoid autocatalysis.
Cal1cat and CathB were pre-treated with inhibitors for 10 min, followed by a 20 min incubation with the biotinylated epoxide, 27, as illustrated in FIG. 4. […] A more quantitative estimate of selectivity was achieved by comparison of band intensities.
The appropriate inhibitor (5 μM) was pre-incubated in a mixture containing Cal1cat (2 μM), CathB (2 μM), TCEP (1 mM), and Ca^2+ (30 μM) for 10 min at 37° C. […] (5 μM) was then added and the mixture incubated an additional 20 min. The reaction was quenched with EDTA (10 μM) and samples were ran using 4-16% SDS PAGE gel, subsequently transferred to PVDF membrane and visualized by Pierce ECL (Enhanced chemiluminescent) western blotting substrate, intensity of each blot was calculated using densitometry software. Relative inhibition of each enzyme was calculated with respect to enzyme activity in the absence of inhibitor. Inhibitor preference to Cal1cat with respect to CathB, was calculated by dividing relative Cal1cat inhibition with relative CathB inhibition of that particular inhibitor.

[7] = test system: APP/PS1 mice; assay: Behavioral rescue assays (contextual fear memory, 2-day RAWM reference memory); assay type: in vivo
Excerpt: APP/PS1-vehicle: n=15; APP/PS1-67: n=6; APP/PS1-30a: n=10; WT-vehicle: n=15; WT-67=5; WT-30a: n=8, APP/PS1-33: n=11; WT-33: n=8, APP/PS1-50: n=10; WT-50: n=8. P<0.05 in all transgenic groups treated with compound compared to their respective vehicle-treated transgenics.
APP/PS1-vehicle: n=17; APP/PS1-67: n=9; APP/PS1-30a: n=10; WT-vehicle: n=18; WT-67=9; WT-30a: n=9, APP/PS1-33: n=10; WT-33: n=9, APP/PS1-50: n=11; WT-50: n=9.
The ability of compounds to rescue the defects in associative and reference memory in 3 month old APP/PS1 animals was assessed. Capability of ameliorating the defects in contextual fear memory was tested via i.p. administration (FIG. 12). In the 2-day RAWM test, daily injections of the 67, 30a, 33 and 50 from the 2nd month of age were beneficial against the loss of contextual fear memory and reference memory.
Impact of chronic treatment on against memory loss in older APP/PS1 mice (7 months of age) with a more severe plaque load was also investigated. Compounds 67, 33 and 50 were beneficial against memory impairment following chronic administration (FIG. 13).
The ability of a prodrug to rescue the defects in associative and reference memory in 3 month old APP/PS1 animals was assessed. […] Thus, the esterification seems to improve PK but it spoils PD parameters. Compound 89 ameliorates both LTP and memory in 3 month old APP/PS1 mice (FIG. 15). Daily treatment with 89 from the age of 2 months until 3 months ameliorated the defect in LTP (A) contextual fear memory (B) and reference memory (C) in APP/PS1 mice. n=10 for all groups. P<0.05 in transgenics treated with compound compared to their respective vehicle-treated transgenics.

[8] = ki/Ki calculated relative to E-64
[9] = mean ± S.D. of triplicate experiments
[10] = APP/PS1 mice, daily treatment from 2 until 7 months
[11] = >1: inhibition not quantifiable at 1 μM

Sequence of papain (P00784 134-345): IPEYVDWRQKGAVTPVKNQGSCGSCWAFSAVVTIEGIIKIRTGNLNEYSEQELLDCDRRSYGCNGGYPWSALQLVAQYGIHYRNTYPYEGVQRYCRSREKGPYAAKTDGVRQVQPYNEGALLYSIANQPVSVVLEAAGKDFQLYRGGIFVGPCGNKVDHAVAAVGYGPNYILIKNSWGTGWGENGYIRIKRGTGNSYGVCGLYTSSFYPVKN
T1 sequence (P07384 whole entry): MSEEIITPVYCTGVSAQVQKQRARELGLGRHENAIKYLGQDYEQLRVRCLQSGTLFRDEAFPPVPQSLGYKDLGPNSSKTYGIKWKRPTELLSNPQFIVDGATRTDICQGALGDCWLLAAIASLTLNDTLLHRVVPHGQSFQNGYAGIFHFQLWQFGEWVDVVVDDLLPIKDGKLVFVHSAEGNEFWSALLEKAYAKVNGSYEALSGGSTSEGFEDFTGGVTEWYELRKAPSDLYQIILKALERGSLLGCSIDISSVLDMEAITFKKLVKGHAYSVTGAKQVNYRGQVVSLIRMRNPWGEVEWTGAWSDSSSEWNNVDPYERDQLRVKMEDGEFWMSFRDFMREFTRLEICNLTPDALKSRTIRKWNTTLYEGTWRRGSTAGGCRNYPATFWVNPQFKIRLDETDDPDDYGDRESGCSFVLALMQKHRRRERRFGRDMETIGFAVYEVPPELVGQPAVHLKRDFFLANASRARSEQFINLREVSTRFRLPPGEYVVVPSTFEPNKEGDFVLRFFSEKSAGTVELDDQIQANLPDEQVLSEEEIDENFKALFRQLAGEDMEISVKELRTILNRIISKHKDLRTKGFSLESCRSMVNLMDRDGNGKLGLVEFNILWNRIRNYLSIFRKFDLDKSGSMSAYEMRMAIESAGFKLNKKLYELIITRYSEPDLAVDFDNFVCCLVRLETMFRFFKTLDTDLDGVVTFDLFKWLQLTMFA
T1 sequence (P04632 whole entry partner): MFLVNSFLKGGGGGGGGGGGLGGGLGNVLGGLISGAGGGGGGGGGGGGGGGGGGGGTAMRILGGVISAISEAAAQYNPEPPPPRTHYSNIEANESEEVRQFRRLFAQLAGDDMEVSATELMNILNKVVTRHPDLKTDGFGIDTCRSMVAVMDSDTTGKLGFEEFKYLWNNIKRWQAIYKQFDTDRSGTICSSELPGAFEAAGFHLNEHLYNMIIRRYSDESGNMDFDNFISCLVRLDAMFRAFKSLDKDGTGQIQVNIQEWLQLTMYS
Sequence of Full length porcine calpain (P35750 whole entry): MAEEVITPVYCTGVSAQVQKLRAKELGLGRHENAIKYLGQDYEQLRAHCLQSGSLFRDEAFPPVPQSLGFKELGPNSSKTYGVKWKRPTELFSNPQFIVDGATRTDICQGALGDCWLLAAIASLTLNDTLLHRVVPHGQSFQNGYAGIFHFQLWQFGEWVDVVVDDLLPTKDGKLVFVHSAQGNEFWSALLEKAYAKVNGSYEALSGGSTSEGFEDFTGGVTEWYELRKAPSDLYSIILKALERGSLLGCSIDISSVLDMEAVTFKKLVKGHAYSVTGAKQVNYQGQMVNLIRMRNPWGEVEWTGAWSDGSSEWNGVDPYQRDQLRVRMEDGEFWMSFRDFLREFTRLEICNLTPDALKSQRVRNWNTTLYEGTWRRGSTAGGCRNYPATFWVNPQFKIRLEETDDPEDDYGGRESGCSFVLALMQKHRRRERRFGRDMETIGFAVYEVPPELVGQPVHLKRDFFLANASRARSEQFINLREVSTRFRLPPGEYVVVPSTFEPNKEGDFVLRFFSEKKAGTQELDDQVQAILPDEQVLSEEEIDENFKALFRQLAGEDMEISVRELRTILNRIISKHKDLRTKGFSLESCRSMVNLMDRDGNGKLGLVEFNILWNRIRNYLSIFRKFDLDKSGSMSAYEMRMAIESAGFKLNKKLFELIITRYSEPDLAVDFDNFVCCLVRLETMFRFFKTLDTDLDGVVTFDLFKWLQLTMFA
Sequence of Full length porcine calpain (P04574 whole entry partner): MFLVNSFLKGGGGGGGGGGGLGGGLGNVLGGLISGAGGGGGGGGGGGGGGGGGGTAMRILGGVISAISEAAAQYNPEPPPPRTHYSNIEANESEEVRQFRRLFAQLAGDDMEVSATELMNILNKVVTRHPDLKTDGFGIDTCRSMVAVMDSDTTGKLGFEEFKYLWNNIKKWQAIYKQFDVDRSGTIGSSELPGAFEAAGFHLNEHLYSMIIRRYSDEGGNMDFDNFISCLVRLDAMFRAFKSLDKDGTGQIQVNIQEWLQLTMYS

SMILES | Cal1 inhibition (in words) [1] | IC50 [1] [nM] | potency for LTP rescue compared with E64 [2] | IC50 [4] [nM] | also measured
O=C(NCc1cn(-c2ccc(Br)cc2)nn1)[C@H](Cc1cscn1)NC(=O)[C@H]1O[C@@H]1C(=O)O [Compound 55, (2S,3S)-3-((S)-1-((1-(4-bromophenyl)-1H-1,2,3-triazol-4-yl)methylamino)-1-oxo-3-(thiazol-4-yl)propan-2-ylcarbamoyl)oxirane-2-carboxylic acid] | potent activity | 40 | did not surpass | – | –
C#Cc1ccc(-c2csc(NC(=O)[C@H](Cc3cscn3)NC(=O)[C@H]3O[C@@H]3C(=O)O)n2)cc1 [Compound 34, (2S,3S)-3-((S)-1-(4-(4-ethynylphenyl)thiazol-2-ylamino)-1-oxo-3-(thiazol-4-yl)propan-2-ylcarbamoyl)oxirane-2-carboxylic acid] | – | – | – | 100 | Relative Selectivity ([3]; Cal1 over papain, ki/Ki relative to E-64 set at 1.0): 3.3; Ki ([3]; apparent equilibrium constant, full length Cal1, read-out: K1 Calpain1): 3500 nM; ki Calpain1 ([3]; inhibition rate, full length Cal1): 0.14 s⁻¹; relative selectivity for inhibition of Cal1 over papain (in words) ([3]; ki/Ki as measure, compared with E-64): Cal1 selectivity; rel Calpain1 [3, 8]: 1.3; 10^−4 × ki/Ki Calpain1 [3, 9]: 3.89 ± 0.41; Ki ([5]; apparent equilibrium constant, read-out: K1 Papain): 9700 nM; ki Papain ([5]; inhibition rate): 21.6 s⁻¹; rel Papain [5, 8]: 0.40; 10^−5 × ki/Ki Papain [5, 9]: 22.3 ± 0.24
CC(C)C[C@H](NC(=O)[C@H]1O[C@@H]1C(=O)O)C(=O)NCCCCNC(=O)CCCC[C@@H]1SC[C@@H]2NC(=O)N[C@@H]21 [Compound 27, (2S,3S)-3-((S)-4-methyl-1-oxo-1-(4-(5-((3aS,4S,6aR)-2-oxohexahydro-1H-thieno[3,4-d]imidazol-4-yl)pentanamido)butylamino)pentan-2-ylcarbamoyl)oxirane-2-carboxylic acid] | shown to be a Cal1 inhibitor | 150 | – | 100 | covalent modification of Cal1 and CathB (anti-biotin immunoblotting) [6]: covalently modify both Cal1 and CathB
Cn1cnc(C[C@H](NC(=O)[C@H]2O[C@@H]2C(=O)O)C(=O)Nc2nc(-c3ccc(F)cc3)cs2)c1 [Compound 36, (2S,3S)-3-((S)-1-(4-(4-fluorophenyl)thiazol-2-ylamino)-3-(1-methyl-1H-imidazol-4-yl)-1-oxopropan-2-ylcarbamoyl)oxirane-2-carboxylic acid] | – | – | did not surpass | 225 | –
CC(C)C[C@H](NC(=O)[C@H]1O[C@@H]1C(=O)O)C(=O)NCCCCNC(=O)CCCCC1CCSS1 (stereo partly drawn) [Compound 67] | – | 150 | surpassed E64 | – | reference memory ([7]; 3 month old APP/PS1 mice, 2-day RAWM, daily from 2 months): beneficial; contextual fear memory ([7]; 3 month old APP/PS1 mice, daily i.p. from 2 months): beneficial; memory impairment ([7]; 7 month old APP/PS1 mice, chronic administration): beneficial; contextual fear memory [7, 10]: ameliorated; reference memory [7, 10]: not significant
NS(=O)(=O)c1ccc(-n2cc(CNC(=O)[C@H](Cc3cscn3)NC(=O)[C@H]3O[C@@H]3C(=O)O)nn2)cc1 [Compound 53, (2S,3S)-3-((S)-1-oxo-1-((1-(4-sulfamoylphenyl)-1H-1,2,3-triazol-4-yl)methylamino)-3-(thiazol-4-yl)propan-2-ylcarbamoyl)oxirane-2-carboxylic acid] | relatively high IC50 values | > 1000 | – | – | IC50 [4, 11]: > 1000 nM
O=C(Nc1nc(-c2ccc(F)cc2)cs1)[C@H](Cc1c[nH]cn1)NC(=O)[C@@H]1O[C@H]1C(=O)O [Compound 30b, (2R,3R)-3-((S)-1-(4-(4-fluorophenyl)thiazol-2-ylamino)-3-(1H-imidazol-4-yl)-1-oxopropan-2-ylcarbamoyl)oxirane-2-carboxylic acid] | – | > 1000 | – | – | IC50 [4, 11]: > 1000 nM
O=C(O)[C@H]1O[C@@H]1C(=O)NC1(C(=O)NCCCCNS(=O)(=O)c2ccc(F)cc2)CCCCC1 [Compound 66] | – | 1000 | surpassed E64 | – | –
O=C(NCc1cn(-c2ccc([N+](=O)[O-])cc2)nn1)[C@H](Cc1cscn1)NC(=O)[C@H]1O[C@@H]1C(=O)O [Compound 56, (2S,3S)-3-((S)-1-((1-(4-nitrophenyl)-1H-1,2,3-triazol-4-yl)methylamino)-1-oxo-3-(thiazol-4-yl)propan-2-ylcarbamoyl)oxirane-2-carboxylic acid] | potent activity | – | – | 300 | –
